Measurements from US7947738B2, “Bicyclic γ-amino acid derivative” (Daiichi Sankyo Company, Ltd., priority 2007, dated 2011).
Where a name gives a salt, the structure may show the parent alone.

Biological target: T1, human Cacna2d1 (human calcium channel subunit α2δ1) (Homo sapiens, UniProt P54289)
T1 construct: 293 cells were transfected with the human Cacna2d1 expression plasmid pRK/hCacna2d1 constructed in paragraph a); expressed in transfected cells; membrane fraction
T1 sequence (P54289 25-1091 isoform P54289-2 limits assumed): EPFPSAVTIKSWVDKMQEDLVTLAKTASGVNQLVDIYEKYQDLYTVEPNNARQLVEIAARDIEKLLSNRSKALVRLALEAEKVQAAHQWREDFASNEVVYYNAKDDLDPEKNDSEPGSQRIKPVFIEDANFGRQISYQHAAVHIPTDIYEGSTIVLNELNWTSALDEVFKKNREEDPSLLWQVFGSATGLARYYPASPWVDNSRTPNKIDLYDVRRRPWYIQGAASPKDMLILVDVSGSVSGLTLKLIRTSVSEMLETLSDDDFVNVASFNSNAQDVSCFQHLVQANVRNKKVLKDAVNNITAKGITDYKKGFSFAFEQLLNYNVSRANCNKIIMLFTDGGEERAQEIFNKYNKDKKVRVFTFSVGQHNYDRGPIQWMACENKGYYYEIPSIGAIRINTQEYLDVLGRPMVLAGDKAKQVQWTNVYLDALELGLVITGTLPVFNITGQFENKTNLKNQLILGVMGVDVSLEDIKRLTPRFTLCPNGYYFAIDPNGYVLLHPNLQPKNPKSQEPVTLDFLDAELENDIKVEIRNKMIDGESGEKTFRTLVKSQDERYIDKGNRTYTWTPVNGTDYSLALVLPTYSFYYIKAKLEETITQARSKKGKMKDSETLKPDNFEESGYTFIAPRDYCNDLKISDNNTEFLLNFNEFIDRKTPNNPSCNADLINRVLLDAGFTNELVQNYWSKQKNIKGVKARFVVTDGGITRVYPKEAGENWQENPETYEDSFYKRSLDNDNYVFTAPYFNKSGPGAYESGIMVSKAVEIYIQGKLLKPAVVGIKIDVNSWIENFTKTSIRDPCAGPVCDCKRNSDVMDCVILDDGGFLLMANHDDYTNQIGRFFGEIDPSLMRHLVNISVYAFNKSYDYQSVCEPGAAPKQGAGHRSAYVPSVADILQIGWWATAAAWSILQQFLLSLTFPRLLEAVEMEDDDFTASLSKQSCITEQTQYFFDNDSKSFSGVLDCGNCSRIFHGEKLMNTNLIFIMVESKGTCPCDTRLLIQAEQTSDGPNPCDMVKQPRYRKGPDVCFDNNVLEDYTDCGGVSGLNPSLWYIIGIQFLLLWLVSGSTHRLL
Experiment: Cacna2d1/GBP binding reaction inhibitory activity (3H-GBP binding to human Cacna2d1-expressing cell membrane fraction)
Settings: IC50 (nM), concentration inhibiting 50% of Cacna2d1/GBP binding, 3H-GBP 4.5 nM, 4° C.
Protocol: 293 cells were transfected with the human Cacna2d1 expression plasmid pRK/hCacna2d1 constructed in paragraph a), and a cell line stably expressing human Cacna2d1 was obtained with human Cacna2d1 protein expression as an index. Specifically, 2×10^6 293 cells were inoculated onto a φ6 cm dish and cultured for 12 hours. Then, the cells were cotransfected with 5 μg of pRK/hCacna2d1 and 0.5 μg of a neomycin-resistant gene expression plasmid pSV2neo (Clontech) using a transfection reagent Lipofectamine Plus (Invitrogen Corp.) according to the protocol provided for the reagent.
The human Cacna2d1-expressing 293 cells obtained in paragraph b) were cultured in large scale in DMEM (Invitrogen Corp.) supplemented with 10% fetal bovine serum (Cansera International, Inc.) and 500 μg/ml G418 (Invitrogen Corp.), and the cells were collected. A protease inhibitor (Complete EDTA free (Roche Applied Science)) was added in an amount recommended for the reagent to a binding assay buffer (10 mM MOPS (pH 7.4), 10 mM HEPES (pH 7.4), 100 mM NaCl) to prepare a membrane fraction preparation buffer. The collected cells were washed with the membrane fraction preparation buffer and then homogenized using an ultrasonicator. Then, the homogenate was centrifuged at 12,000 rpm at 4° C. for 1 hour using a centrifuge. The supernatant was discarded, and the precipitate was suspended in the membrane fraction preparation buffer. The procedure from the ultrasonication using a ultrasonicator to the suspension of the precipitate after centrifugation was further repeated three times, and the obtained suspension was used as a human Cacna2d1-expressing cell membrane fraction. The total level of proteins contained in the membrane fraction was calculated from UV absorbance at a wavelength of 280 nm.
The human Cacna2d1-expressing cell membrane fraction and GBP labeled with a radioisotope ^3H (hereinafter, referred to as ^3H-GBP; Tocris Cookson Ltd.) were diluted with a binding assay buffer (10 mM MOPS (pH 7.4), 10 mM HEPES (pH 7.4), 100 mM NaCl) at a final concentration of 2.5 mg/ml in terms of the total protein level and a final ^3H-GBP concentration of 4.5 nM, respectively, to prepare 120 μl of a reaction solution, which was in turn left standing at 4° C. for 3 hours. This reaction product was added to wells of a filter plate (UniFilter 350 GF/B (Whatman)) and filtered through the filter. Then, a washing procedure involving the addition of 350 μl of a binding assay buffer (10 mM MOPS (pH 7.4), 10 mM HEPES (pH 7.4), 100 mM NaCl) and filtration through the filter was repeated three times. The filter plate was thoroughly dried, and the underside was sealed. After addition of 50 μl of Microscint 20 (PerkinElmer Inc.), the upper surface was also sealed, and radiation derived from the radioisotope ^3H remaining on the filter was counted using TopCount (PerkinElmer Inc.). From the obtained value, a value obtained by adding unlabeled GBP (SIGMA-ALDRICH INC.) at a final concentration of 20 μM to the present assay was subtracted as that derived from nonspecific adsorption, and the obtained value was used as the specific binding level of ^3H-GBP to Cacna2d1 (unit: “count”).
Each test compound was added at various concentrations to the Cacna2d1/GBP binding reaction detection assay constructed in paragraph a), and the binding level was measured by the method described in paragraph a). Then, with the Cacna2d1/GBP specific binding level obtained by the addition of the compound at a concentration of x nM defined as “binding level [x]” and the Cacna2d1/GBP binding inhibitory rate thereagainst defined as “inhibitory rate [x]”, the inhibitory rate (%) was determined based on the following equation: Inhibitory rate [x](%)=(1−(binding level [x]/binding level))×100, wherein the binding level refers to the binding level of ^3H-GBP obtained without the addition of the compound.
The inhibitory rate was plotted against the concentration.
`NC[C@@]1(CC(=O)O)C[C@@H]2CC(C3CCCC3)=C[C@@H]21` (racemic) [Example 14, (±)-[(1S,5R,6R)-6-aminomethyl-3-cyclopentylbicyclo[3.2.0]hept-3-en-6-yl]acetic acid] showed an IC50 of 55 nM.
Work on `CCCC1=C[C@H]2[C@@H](C1)C[C@@]2(CN)CC(=O)O` (racemic) [Example 9, (±)-[(1S,5R,6R)-6-aminomethyl-3-propylbicyclo[3.2.0]hept-3-en-6-yl]acetic acid] yielded an IC50 of 32 nM.
`CCCCC1=C[C@H]2[C@@H](C1)C[C@@]2(CN)CC(=O)O` (racemic) [Example 10, (±)-[(1S,5R,6R)-6-aminomethyl-3-butylbicyclo[3.2.0]hept-3-en-6-yl]acetic acid] showed an IC50 of 28 nM.
`CCC(C)C1=CC2C(C1)CC2(CN)CC(=O)O` (mixture of isomers) [Example 13, (±)-[(1S,5R,6R)-6-aminomethyl-3-sec-bicyclo[3.2.0]hept-3-en-6-yl]acetic acid] gave an IC50 of 200 nM.
For `C[C@]12C=CC[C@H]1C[C@]2(CN)CC(=O)O` (racemic) [Example 16, (±)-[(1S,5R,6S)-6-aminomethyl-5-methylbicyclo[3.2.0]hept-3-en-6-yl]acetic acid], the IC50 was 65 nM.
In the case of `NC[C@]1(CC(=O)O)C[C@H]2CC=C[C@H]21` [Example 2, [(1R,5S,6S)-6-(aminomethyl)bicyclo[3.2.0]hept-3-en-6-yl]acetic acid], the IC50 is reported as 27 nM.
`Cl.NC[C@]1(CC(=O)O)C[C@H]2CC=C[C@H]21` [Example 6, [(1R,5S,6S)-6-(aminomethyl)bicyclo[3.2.0]hept-3-en-6-yl]acetic acid benzenesulfonate] showed an IC50 of 26 nM.
`CCC1=C[C@H]2[C@@H](C1)C[C@@]2(CN)CC(=O)O` (racemic) [Example 8, (±)-[(1S,5R,6R)-6-aminomethyl-3-ethylbicyclo[3.2.0]hept-3-en-6-yl]acetic acid] gave an IC50 of 28 nM.
`CCC1=C[C@@H]2[C@H](C1)C[C@]2(CN)CC(=O)O` [Example 31, [(1R,5S,6S)-6-(aminomethyl)-3-ethylbicyclo[3.2.0]hept-3-en-6-yl]acetic acid benzenesulfonate] gave an IC50 of 14 nM.
Work on `CCC1=C[C@@H]2[C@H](C1)C[C@]2(CN)CC(=O)O` [Example 22, [(1R,5S,6S)-6-aminomethyl-3-ethylbicyclo[3.2.0]hept-3-en-6-yl]acetic acid p-toluenesulfonate] yielded an IC50 of 10 nM.
With `CC1C=C[C@@H]2[C@H]1C[C@@]2(CN)CC(=O)O` (mixture of isomers) [Example 17, (±)-[(1S,5R,6R)-6-aminomethyl-2-methylbicyclo[3.2.0]hept-3-en-6-yl]acetic acid] the IC50 was 120 nM.
`C=CCC1=C[C@H]2[C@@H](C1)C[C@@]2(CN)CC(=O)O` (racemic) [Example 15, (±)-[(1S,5R,6R)-6-aminomethyl-3-allylbicyclo[3.2.0]hept-3-en-6-yl]acetic acid] showed an IC50 of 73 nM.
Molecule `CC(C)C1=C[C@H]2[C@@H](C1)C[C@@]2(CN)CC(=O)O` (racemic) [Example 11, (±)-[(1S,5R,6R)-6-aminomethyl-3-isopropylbicyclo[3.2.0]hept-3-en-6-yl]acetic acid] has an IC50 of 89 nM.
Molecule `CCC1=C[C@@H]2[C@H](C1)C[C@]2(CN)CC(=O)O` (single isomer, unassigned) [Example 21] has an IC50 of 14 nM.
`CC(C)CC1=C[C@H]2[C@@H](C1)C[C@@]2(CN)CC(=O)O` (racemic) [Example 12, (±)-[(1S,5R,6R)-6-aminomethyl-3-isobutylbicyclo[3.2.0]hept-3-en-6-yl]acetic acid] showed an IC50 of 32 nM.
`CSCC1=C[C@H]2[C@@H](C1)C[C@@]2(CN)CC(=O)O` (racemic) [Example 24, (±)-{(1R,5R,6R)-6-aminomethyl-3-[(methylthio)methyl]bicyclo[3.2.0]hept-3-en-6-yl}acetic acid] showed an IC50 of 85 nM.
With `NC[C@@]1(CC(=O)O)C[C@@H]2CC=C[C@@H]21` (racemic) [Example 1, (±)-[(1S,5R,6R)-6-(aminomethyl)bicyclo[3.2.0]hept-3-en-6-yl]acetic acid] the IC50 was 51 nM.
In the case of `NC[C@]1(CC(=O)O)C[C@H]2CC=C[C@H]21` [Example 5, [(1R,5S,6S)-6-(aminomethyl)bicyclo[3.2.0]hept-3-en-6-yl]acetic acid hydrochloride], the IC50 is reported as 24 nM.
For `CC1=C[C@H]2[C@@H](C1)C[C@@]2(CN)CC(=O)O` (racemic) [Example 7, (±)-[(1S,5R,6R)-6-aminomethyl-3-methylbicyclo[3.2.0]hept-3-en-6-yl]acetic acid], the IC50 was 36 nM.
Work on `CC1=C(C)[C@H]2[C@@H](C1)C[C@@]2(CN)CC(=O)O` (racemic) [Example 20, (±)-[(1S,5R,6R)-6-aminomethyl-3,4-dimethylbicyclo[3.2.0]hept-3-en-6-yl]acetic acid p-toluenesulfonate] yielded an IC50 of 100 nM.
Molecule `CCC1=C[C@H]2[C@@H](C1)C[C@@]2(CN)CC(=O)O` (single isomer, unassigned) [Example 23] has an IC50 of 41 nM.

Same assay, conditions: concentration inhibiting 50% of Cacna2d1/GBP binding, 3H-GBP 4.5 nM, 4° C., read-out: IC50
For `CC(=O)OCC1=C[C@H]2[C@@H](C1)C[C@@]2(CN)CC(=O)O` (racemic) [Example 18, (±)-[(1R,5R,6R)-3-(acetoxymethyl)-6-(aminomethyl)bicyclo[3.2.0]hept-3-en-6-yl]acetic acid], the IC50 was 670 nM.

Tested on: painful diabetic neuropathy
Experiment: not given
Settings: patients' own evaluations; Non-Patent Document 4; cited from earlier work
For `CC(C)C[C@H](CN)CC(=O)O` [pregabalin], the “efficacy in the treatment of painful diabetic neuropathy” value is given as “approximately 50%”.

Tested on: postherpetic neuralgia
Experiment: not given
Settings: patients' own evaluations; Non-Patent Document 3; cited from earlier work
For `NCC1(CC(=O)O)CCCCC1` [gabapentine], the “efficacy in the treatment of postherpetic neuralgia” value is listed as “approximately 60%”.

Tested on: mice suffering from mechanical hyperalgesia
Experiment: Mechanical hyperalgesia assay (von Frey filament pain score)
Format: in vivo
Settings: oral administration, dose that offers 50% improvement relative to the pain score of vehicle-administered group
Protocol: In the present invention, mice suffering from mechanical hyperalgesia were used in evaluation.
The mice were acclimatized for 30 minutes in a plastic cage for measurement. Then, the test compound was orally administered to the mice, which were in turn evaluated for mechanical hyperalgesia at a measurement time predetermined by a person in charge of the test. The evaluation of mechanical hyperalgesia was conducted by a partial modification of the method of Takasaki et al. (Pain 86 95-101, 2000) to confirm the effect of the test compound on mechanical hyperalgesia. Specifically, mechanical hyperalgesia was evaluated by assessing, based on scores according to the following criteria, behavior induced by pressing 1.4 g of von Frey filament onto the sole of the animal:
0: no response, 1: withdrawal from von Frey filament, and 2: shaking or licking of the hind paw immediately after the stimulation.
In one measurement, 6 stimulations were given to the mice, and the total score was used as a pain score.
The test compound was evaluated by calculating ID50, which is the dose of the compound that offers 50% improvement relative to the pain score of a vehicle-administered group.
In the case of `NC[C@]1(CC(=O)O)C[C@H]2CC=C[C@H]21` [Example 2, [(1R,5S,6S)-6-(aminomethyl)bicyclo[3.2.0]hept-3-en-6-yl]acetic acid], the ID50 is reported as 10.4 mg/kg.

Tested on: not given
Experiment: not given
Settings: not given
Molecule `Cl.NC[C@]1(CC(=O)O)C[C@H]2CC=C[C@H]21` [Example 6, [(1R,5S,6S)-6-(aminomethyl)bicyclo[3.2.0]hept-3-en-6-yl]acetic acid benzenesulfonate] has a melting point of 161 to 162 °C.
Work on `CCC1=C[C@H]2[C@@H](C1)C[C@@]2(CNO)CC(=O)O.Cl` (racemic) yielded a melting point of 98 to 99 °C.
